US11897851B2, “Heterocyclic GLP-1 agonists” (Gasherbrum Bio, Inc., priority 2021, dated 2024)

Target: T1, GLP-1 Receptor (Homo sapiens, UniProt P43220)
T1 construct: host or cells: HEK293/GLP1R/CRE-LUC (HEK293/CRE-Luc stably expressing the GLP-1 receptor)
Test: GLP-1R agonist cAMP stimulation assay (HEK293/GLP1R/CRE-LUC cells, Cisbio cAMP dynamic 2 kit);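 further: compounds tested in half-log serial dilution, cAMP detected with cAMP-d2 and anti-cAMP cryptate antibody reagents after 1 h at room temperature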
Format: cell-based
Conditions: HEK293/CRE-Luc cell line stably expressing the GLP-1 Receptor; 1000 cells/well; 30 min at 37° C.; 0.5 mM IBMX, 0.1% BSA; read-out: GLP1R cAMP Stimulation DR: EC50

T1 sequence (P43220 24-463, species assumed): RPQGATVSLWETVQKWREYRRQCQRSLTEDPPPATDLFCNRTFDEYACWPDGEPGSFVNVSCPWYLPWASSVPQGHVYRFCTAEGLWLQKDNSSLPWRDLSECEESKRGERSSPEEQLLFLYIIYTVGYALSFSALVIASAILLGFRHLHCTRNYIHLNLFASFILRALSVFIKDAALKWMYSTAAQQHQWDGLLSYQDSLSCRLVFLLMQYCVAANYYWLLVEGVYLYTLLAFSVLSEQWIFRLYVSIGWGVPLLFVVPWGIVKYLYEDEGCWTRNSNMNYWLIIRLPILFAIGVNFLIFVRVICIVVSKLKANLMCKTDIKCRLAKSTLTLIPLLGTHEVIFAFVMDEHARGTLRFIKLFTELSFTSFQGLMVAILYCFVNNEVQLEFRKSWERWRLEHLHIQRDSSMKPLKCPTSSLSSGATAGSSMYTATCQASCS

| SMILES | EC50 |
| --- | --- |
| CC1(c2ccc(Cl)cc2F)Oc2cccc(C3CCN(Cc4ncc(/C=C/C(=O)O)n4Cc4cccc(Cl)c4)CC3)c2O1 (stereo not drawn) [Compound 150, (E)-3-(2-((4-(2-(4-chloro-2-fluorophenyl)-2-methylbenzo[d][1,3]dioxol-4-yl)piperidin-1-yl)methyl)-1-(3-chlorobenzyl)-1H-imidazol-5-yl)acrylic acid] | 0.054 nM |
| CC1(c2ccc(Cl)cc2F)Oc2cccc(C3CCN(Cc4ncc(/C=C/C(=O)O)n4Cc4ccccc4)CC3)c2O1 (stereo not drawn) [Compound 151, (E)-3-(1-benzyl-2-((4-(2-(4-chloro-2-fluorophenyl)-2-methylbenzo[d][1,3]dioxol-4-yl)piperidin-1-yl)methyl)-1H-imidazol-5-yl)acrylic acid] | 0.043 nM |
| C[C@@H](c1ccccc1)n1c(/C=C/C(=O)O)cnc1CN1CCC(c2cccc3c2OC(C)(c2ccc(Cl)cc2F)O3)CC1 (stereo partly drawn) [Compound 152, (E)-3-(2-((4-(2-(4-chloro-2-fluorophenyl)-2-methylbenzo[d][1,3]dioxol-4-yl)piperidin-1-yl)methyl)-1-((S)-1-phenylethyl)-1H-imidazol-5-yl)acrylic acid] | 0.53 nM |
| C[C@H](c1ccccc1)n1c(/C=C/C(=O)O)cnc1CN1CCC(c2cccc3c2OC(C)(c2ccc(Cl)cc2F)O3)CC1 (stereo partly drawn) [Compound 153, (E)-3-(2-((4-(2-(4-chloro-2-fluorophenyl)-2-methylbenzo[d][1,3]dioxol-4-yl)piperidin-1-yl)methyl)-1-((R)-1-phenylethyl)-1H-imidazol-5-yl)acrylic acid] | 18 nM |
| CC1(c2ccc(Cl)cc2F)Oc2cccc(C3CCN(Cc4ncc(/C=C/C(=O)O)n4C[C@H]4CCOC4)CC3)c2O1 (stereo partly drawn) [Compound 154, (E)-3-(2-((4-(2-(4-chloro-2-fluorophenyl)-2-methylbenzo[d][1,3]dioxol-4-yl)piperidin-1-yl)methyl)-1-(((R)-tetrahydrofuran-3-yl)methyl)-1H-imidazol-5-yl)acrylic acid] | 0.012 nM |
| C[C@]1(c2ccc(Cl)cc2F)Oc2cccc(C3CCN(Cc4ncc(/C=C/C(=O)O)n4C[C@H]4CCOC4)CC3)c2O1 [Compound 155, (E)-3-(2-((4-((S)-2-(4-chloro-2-fluorophenyl)-2-methylbenzo[d][1,3]dioxol-4-yl)piperidin-1-yl)methyl)-1-(((R)-tetrahydrofuran-3-yl)methyl)-1H-imidazol-5-yl)acrylic acid] | 0.0054 nM |
| CC1(c2ccc(Cl)cc2F)Oc2cccc(C3CCN(Cc4ncc(/C=C/C(=O)O)n4C[C@@H]4CCOC4)CC3)c2O1 (stereo partly drawn) [Compound 156, (E)-3-(2-((4-(2-(4-chloro-2-fluorophenyl)-2-methylbenzo[d][1,3]dioxol-4-yl)piperidin-1-yl)methyl)-1-(((S)-tetrahydrofuran-3-yl)methyl)-1H-imidazol-5-yl)acrylic acid] | 0.086 nM |
| CC1(c2ccc(Cl)cc2F)Oc2cccc(C3CCN(Cc4ncc(/C=C/C(=O)O)n4CC4(F)COC4)CC3)c2O1 (stereo not drawn) [Compound 157, (E)-3-(2-((4-(2-(4-chloro-2-fluorophenyl)-2-methylbenzo[d][1,3]dioxol-4-yl)piperidin-1-yl)methyl)-1-((3-fluorooxetan-3-yl)methyl)-1H-imidazol-5-yl)acrylic acid] | 0.26 nM |
| CC(C)OCCn1c(/C=C/C(=O)O)cnc1CN1CCC(c2cccc3c2OC(C)(c2ccc(Cl)cc2F)O3)CC1 (stereo not drawn) [Compound 158, (E)-3-(2-((4-(2-(4-chloro-2-fluorophenyl)-2-methylbenzo[d][1,3]dioxol-4-yl)piperidin-1-yl)methyl)-1-(2-isopropoxyethyl)-1H-imidazol-5-yl)acrylic acid] | 0.056 nM |
| COC(C)Cn1c(/C=C/C(=O)O)cnc1CN1CCC(c2cccc3c2OC(C)(c2ccc(Cl)cc2F)O3)CC1 (stereo not drawn) [Compound 159, (E)-3-(2-((4-(2-(4-chloro-2-fluorophenyl)-2-methylbenzo[d][1,3]dioxol-4-yl)piperidin-1-yl)methyl)-1-(2-methoxypropyl)-1H-imidazol-5-yl)acrylic acid] | 0.051 nM |
| CC1(c2ccc(Cl)cc2F)Oc2cccc(C3CCN(Cc4ncc(/C=C/C(=O)O)n4C[C@H]4CCCO4)CC3)c2O1 (stereo partly drawn) [Compound 160, (E)-3-(2-((4-(2-(4-chloro-2-fluorophenyl)-2-methylbenzo[d][1,3]dioxol-4-yl)piperidin-1-yl)methyl)-1-(((R)-tetrahydrofuran-2-yl)methyl)-1H-imidazol-5-yl)acrylic acid] | 0.12 nM |
| CC1(c2ccc(Cl)cc2F)Oc2cccc(C3CCN(Cc4ncc(/C=C/C(=O)O)n4CCS(C)(=O)=O)CC3)c2O1 (stereo not drawn) [Compound 161, (E)-3-(2-((4-(2-(4-chloro-2-fluorophenyl)-2-methylbenzo[d][1,3]dioxol-4-yl)piperidin-1-yl)methyl)-1-(2-(methylsulfonyl)ethyl)-1H-imidazol-5-yl)acrylic acid] | 0.18 nM |
| CC1(c2ccc(Cl)cc2F)Oc2cccc(C3CCN(Cc4ncc(/C=C/C(=O)O)n4CC4CC4)CC3)c2O1 (stereo not drawn) [Compound 162, (E)-3-(2-((4-(2-(4-chloro-2-fluorophenyl)-2-methylbenzo[d][1,3]dioxol-4-yl)piperidin-1-yl)methyl)-1-(cyclopropylmethyl)-1H-imidazol-5-yl)acrylic acid] | 0.14 nM |
| CC1(c2ccc(Cl)cc2F)Oc2cccc(C3CCN(Cc4ncc(/C=C/C(=O)O)n4[C@@H]4CCOC4)CC3)c2O1 (stereo partly drawn) [Compound 163, (E)-3-(2-((4-(2-(4-chloro-2-fluorophenyl)-2-methylbenzo[d][1,3]dioxol-4-yl)piperidin-1-yl)methyl)-1-((R)-tetrahydrofuran-3-yl)-1H-imidazol-5-yl)acrylic acid] | 0.13 nM |
| Cn1c(/C=C/C(=O)O)cnc1CN1CCC(c2cccc3c2OC(C)(c2ccc(Cl)cc2F)O3)CC1 (stereo not drawn) [Compound 164, (E)-3-(2-((4-(2-(4-chloro-2-fluorophenyl)-2-methylbenzo[d][1,3]dioxol-4-yl)piperidin-1-yl)methyl)-1-methyl-1H-imidazol-5-yl)acrylic acid] | 0.33 nM |
| CC1(c2ccc(Cl)cc2F)Oc2cccc(C3CCN(Cc4ncc(/C=C/C(=O)O)n4CC4CCS4(=O)=O)CC3)c2O1 (stereo not drawn) [Compound 165, (E)-3-(2-((4-(2-(4-chloro-2-fluorophenyl)-2-methylbenzo[d][1,3]dioxol-4-yl)piperidin-1-yl)methyl)-1-((1,1-dioxidothietan-2-yl)methyl)-1H-imidazol-5-yl)acrylic acid] | 0.014 nM |
| COC1(Cn2c(/C=C/C(=O)O)cnc2CN2CCC(c3cccc4c3OC(C)(c3ccc(Cl)cc3F)O4)CC2)CCC1 (stereo not drawn) [Compound 166, (E)-3-(2-((4-(2-(4-chloro-2-fluorophenyl)-2-methylbenzo[d][1,3]dioxol-4-yl)piperidin-1-yl)methyl)-1-((1-methoxycyclobutyl)methyl)-1H-imidazol-5-yl)acrylic acid] | 0.069 nM |
| CC1(c2ccc(Cl)cc2F)Oc2cccc(C3CCN(Cc4ncc(/C=C/C(=O)O)n4CC4CCC4(F)F)CC3)c2O1 (stereo not drawn) [Compound 167, (E)-3-(2-((4-(2-(4-chloro-2-fluorophenyl)-2-methylbenzo[d][1,3]dioxol-4-yl)piperidin-1-yl)methyl)-1-((2,2-difluorocyclobutyl)methyl)-1H-imidazol-5-yl)acrylic acid] | 0.065 nM |
